# Measured values from the supplement of paper PMC10307832.
# Assays:
# Assay in all cases: relative viability (nuclei count vs DMSO), 5 days (fraction); higher = more cells survive
# Nelarabine + Vorinostat = compound: COc1nc(N)nc2c1ncn2[C@@H]1O[C@H](CO)[C@@H](O)[C@@H]1O [Nelarabine] + O=C(CCCCCCC(=O)Nc1ccccc1)NO [Vorinostat] (partner 1 µM)
# How it was run: (§1)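 Lung cancer cell lines in 1536-well plates were dosed by pin tool the day after seeding, either with one drug alone or with a fixed anchor-drug dose plus five library-drug doses (not always all listed) in √10 steps. After 5 days, cells were fixed and their nuclei stained in one step (final 0.05% Triton X-100, 1% formaldehyde, 1 ug/ml Hoechst), then counted on 4× images. Relative viability is the nuclei count in treated wells divided by that in vehicle wells. Values are medians of duplicate plates.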
# Adavosertib + Luminespib = compound: C=CCn1c(=O)c2cnc(Nc3ccc(N4CCN(C)CC4)cc3)nc2n1-c1cccc(C(C)(C)O)n1 [Adavosertib] + CCNC(=O)c1noc(-c2cc(C(C)C)c(O)cc2O)c1-c1ccc(CN2CCOCC2)cc1 [Luminespib] (partner 0.01 µM)
# How it was run: as §1
# Adavosertib + Decitabine = compound: C=CCn1c(=O)c2cnc(Nc3ccc(N4CCN(C)CC4)cc3)nc2n1-c1cccc(C(C)(C)O)n1 [Adavosertib] + Nc1ncn([C@H]2C[C@H](O)[C@@H](CO)O2)c(=O)n1 [Decitabine] (partner 2 µM)
# How it was run: as §1
# Adavosertib + Crizotinib = compound: C=CCn1c(=O)c2cnc(Nc3ccc(N4CCN(C)CC4)cc3)nc2n1-c1cccc(C(C)(C)O)n1 [Adavosertib] + C[C@@H](Oc1cc(-c2cnn(C3CCNCC3)c2)cnc1N)c1c(Cl)ccc(F)c1Cl [Crizotinib] (partner 1 µM)
# How it was run: as §1
cell line,measurement,setting,value
EMC-BAC-2,relative viability,Nelarabine + Vorinostat; first compound 0.01 µM,0.47
same,relative viability,Nelarabine + Vorinostat; first compound 0.03162 µM,1.01
same,relative viability,Nelarabine + Vorinostat; first compound 0.1 µM,0.643
same,relative viability,Nelarabine + Vorinostat; first compound 0.3162 µM,0.441
same,relative viability,Nelarabine + Vorinostat; first compound 1 µM,0.399
same,relative viability,Adavosertib + Luminespib; first compound 0.01 µM,1.14
same,relative viability,Adavosertib + Luminespib; first compound 0.03162 µM,1.25
same,relative viability,Adavosertib + Luminespib; first compound 0.1 µM,1.18
same,relative viability,Adavosertib + Luminespib; first compound 0.3162 µM,1.11
same,relative viability,Adavosertib + Decitabine; first compound 0.03162 µM,0.997
same,relative viability,Adavosertib + Decitabine; first compound 0.1 µM,1.08
same,relative viability,Adavosertib + Decitabine; first compound 0.3162 µM,1.04
same,relative viability,Adavosertib + Crizotinib; first compound 0.01 µM,0.846
same,relative viability,Adavosertib + Crizotinib; first compound 0.03162 µM,0.754
same,relative viability,Adavosertib + Crizotinib; first compound 0.1 µM,0.887
same,relative viability,Adavosertib + Crizotinib; first compound 0.3162 µM,0.811
